# Assay results from ChEMBL document CHEMBL3244037, “6-Aryl-4H-s-triazolo[4,3-a][1,4]benzodiazepines. Influence of 1-substitution on pharmacological activity” (J Med Chem, 1979).
# What was measured:
# [1] = system: Mus musculus; assay: Anticonvulsant activity in ip dosed albino CF1 mouse assessed as protection against pentylenetetrazole-induced clonic convulsions; format: functional
# [2] = system: Mus musculus; assay: Hypothermic activity in ip dosed albino CF1 mouse assessed as effect on body temperature measured after 45 mins; format: functional; details: 0.75 h
# [3] = system: Mus musculus; assay: Inhibition of apomorphine-induced cage climbing in ip dosed albino CF1 mouse compound administered prior to challenge measured for 5 mins after 5 mins of challenge; format: functional
# [4] = system: Mus musculus; assay: Anticonvulsant activity in ip dosed albino CF1 mouse assessed as inhibition of bicucullin-induced tonic extensor convulsions; format: functional
# [5] = system: Mus musculus; assay: […] activity in ip dosed albino CF1 mouse assessed as potentiation of gamma-butyrolactone-induced sleep; format: functional
# [6] = system: Mus musculus; assay: Reduction of hypoxic stress in ip dosed albino CF1 mouse assessed as prolongation of hypoxic survival time; format: functional
# [7] = system: Mus musculus; assay: Inhibition of amphetamine aggregation toxicity in ip dosed albino CF1 mouse compound administered 1 hr prior to challenge measured after 2 hrs; format: functional
# [8] = system: Mus musculus; assay: Potentiation of yohimbine toxicity in ip dosed aggregated albino CF1 mouse; format: organism-based
# [9] = system: Mus musculus; assay: Inhibition of oxotremorine-induced hypothermia in ip dosed albino CF1 mouse; format: functional
# [10] = system: Mus musculus; assay: Potentiation of apomorphine-induced gnawing in ip dosed albino CF1 mouse; format: organism-based
Structure (SMILES),ED50 [1] [mg/kg],ED50 [2] [mg/kg],ED50 [3] [mg/kg],ED50 [4] [mg/kg],ED50 [5] [mg/kg],ED50 [6] [mg/kg],ED50 [7] [mg/kg],ED50 [8] [mg/kg],ED50 [9] [mg/kg],ED50 [10] [mg/kg]
N#CCc1nnc2n1-c1ccc(Cl)cc1C(c1ccccc1)=NC2,0.63,> 50,40,0.2,0.07,2,> 50,> 50,> 50,> 50
CC1N=C(c2ccccc2)c2cc(Cl)ccc2-n2c1nnc2N1CCN(C)CC1 (stereo not drawn),3.1,29.7,50,2.6,0.7,4.4,> 50,8.8,4.4,> 50
CC1N=C(c2ccccc2)c2cc(Cl)ccc2-n2c1nnc2N1CCOCC1 (stereo not drawn),0.4,> 50,> 50,3,0.7,3,> 50,20,10,> 50
CC1=NC(c2ccccc2)c2cc(Cl)ccc2-n2c1nnc2N1CCN(C)CC1 (stereo not drawn),> 50,> 50,> 50,> 50,> 50,–,> 50,> 50,40,> 50
CC1=NC(c2ccccc2)c2cc(Cl)ccc2-n2c1nnc2N1CCOCC1 (stereo not drawn),> 50,> 50,> 50,> 50,> 50,–,> 50,> 50,> 50,> 50
Cc1nnc2n1-c1ccc(N)cc1C(c1ccccc1Cl)=NC2,2,30,> 50,0.9,0.7,4,> 50,> 50,> 50,> 50
Brc1ccc2c(c1)C(c1ccccn1)=NCc1nncn1-2,0.3,> 50,> 50,0.4,0.04,0.2,> 50,42,> 50,> 50
Clc1ccc2c(c1)C(c1ccccc1)=NCc1nnc(Cl)n1-2,3.1,> 50,> 50,4,3,> 50,> 50,> 50,> 50,> 50
